In publication PMC5088049 (Pharmacogenetics and genomics, 2016):

How the values were obtained:
[1] = target: T1, AKR1C2 Phe46Tyr (Homo sapiens, UniProt P52895, F46Y); conditions: relative to wildtype AKR1C2; cited from earlier work
T1 sequence (P52895 1-323 F46Y): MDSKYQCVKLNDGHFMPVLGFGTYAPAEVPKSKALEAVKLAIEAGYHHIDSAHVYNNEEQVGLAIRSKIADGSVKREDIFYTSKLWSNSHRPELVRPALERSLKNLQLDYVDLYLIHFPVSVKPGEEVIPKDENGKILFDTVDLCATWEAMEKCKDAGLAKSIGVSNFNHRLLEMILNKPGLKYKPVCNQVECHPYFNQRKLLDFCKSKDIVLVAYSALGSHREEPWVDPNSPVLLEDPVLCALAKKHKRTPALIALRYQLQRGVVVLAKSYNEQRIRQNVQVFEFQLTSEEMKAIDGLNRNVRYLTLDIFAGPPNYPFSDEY

[2] = target: T1, AKR1C2 Phe46Tyr; conditions: cited from earlier work
[3] = target: T2, aromatase (Homo sapiens, UniProt P11511); assay: Inhibition of aromatase-mediated estrogen formation; type: biochemical; conditions: unpublished observations
T2 sequence (P11511 1-503): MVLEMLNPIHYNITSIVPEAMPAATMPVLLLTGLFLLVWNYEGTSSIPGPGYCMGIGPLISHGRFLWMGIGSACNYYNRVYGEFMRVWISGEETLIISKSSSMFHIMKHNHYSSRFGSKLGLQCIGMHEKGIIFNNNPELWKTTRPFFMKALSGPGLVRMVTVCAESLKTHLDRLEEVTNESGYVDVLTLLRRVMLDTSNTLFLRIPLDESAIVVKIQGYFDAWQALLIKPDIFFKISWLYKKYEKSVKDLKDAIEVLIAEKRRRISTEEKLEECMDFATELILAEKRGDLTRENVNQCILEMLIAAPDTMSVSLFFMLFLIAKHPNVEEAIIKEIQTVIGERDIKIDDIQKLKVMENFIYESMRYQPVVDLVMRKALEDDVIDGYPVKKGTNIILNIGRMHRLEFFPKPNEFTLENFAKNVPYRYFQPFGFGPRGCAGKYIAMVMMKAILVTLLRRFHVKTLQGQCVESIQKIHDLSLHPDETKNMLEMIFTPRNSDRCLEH

[4] = target: T2, aromatase; conditions: aromatase-mediated estrogen formation; cited from earlier work
[5] = cited from earlier work
[6] = substrate: C=C1C[C@@H]2[C@H](CC[C@]3(C)C(=O)CC[C@@H]23)[C@@]2(C)C=CC(=O)C=C12; assay: not read; conditions: other: AKR1C2 Phe46Tyr (rs2854482); 17β-DHE formation; 37.0 °C

OC1Cc2cccc3cccc1c23 (stereo not shown) [1-acenaphthenol]
decrease in overall AKR1C2 activity by Phe46Tyr substitution [1]: approximately 30%

C[C@]12CCC(=O)C[C@@H]1CC[C@@H]1[C@@H]2CC[C@]2(C)[C@@H](O)CC[C@@H]12 [5α-DHT]
decrease in VMAX for reduction relative to wildtype enzyme [2]: 40%

C=C1C[C@H]2[C@@H]3CC[C@@H](O)[C@@]3(C)CC[C@@H]2[C@@]2(C)C=CC(=O)C=C12 [17α-DHE, 17α-dihydroexemestane]
aromatase-inhibiting properties [3]: no appreciable aromatase-inhibiting properties

C=C1C[C@H]2[C@@H]3CC[C@H](O)[C@@]3(C)CC[C@@H]2[C@@]2(C)C=CC(=O)C=C12 [17β-DHE, 17β-dihydroexemestane]
aromatase inhibition potency [4]: potency similar to its parent compound EXE
17β-DHE concentration relative to parent drug in plasma ([5]; healthy individuals taking EXE): 35–40%
variation of amount of 17β-DHE relative to EXE in human plasma ([5]; pool of three participants): five-fold

B1: AKR1C2 Phe46Tyr (Homo sapiens; F46Y) (protein)
chain: T1 sequence (P52895 1-323 F46Y)
Km [6]: 13.5 ± 2.8 µM
